Data from ChEMBL document CHEMBL1152264, “Diazen-1-ium-1,2-diolated nitric oxide donor ester prodrugs of 5-(4-hydroxymethylphenyl)-1-(4-aminosulfonylphenyl)-3-trifluoromethyl-1H-pyrazole and its methanesulfonyl analog: synthesis, biological evaluation and nitric oxide release studies” (Bioorg Med Chem, 2008).

Legend:
Rattus norvegicus = assay: Antiinflammatory activity against po dosed carrageenan-induced rat foot paw edema after 3 hrs; assay type: functional
[1] = biological target: T1, Prostaglandin G/H synthase 1 (Ovis aries, UniProt P05979)
T1 sequence (P05979 whole entry): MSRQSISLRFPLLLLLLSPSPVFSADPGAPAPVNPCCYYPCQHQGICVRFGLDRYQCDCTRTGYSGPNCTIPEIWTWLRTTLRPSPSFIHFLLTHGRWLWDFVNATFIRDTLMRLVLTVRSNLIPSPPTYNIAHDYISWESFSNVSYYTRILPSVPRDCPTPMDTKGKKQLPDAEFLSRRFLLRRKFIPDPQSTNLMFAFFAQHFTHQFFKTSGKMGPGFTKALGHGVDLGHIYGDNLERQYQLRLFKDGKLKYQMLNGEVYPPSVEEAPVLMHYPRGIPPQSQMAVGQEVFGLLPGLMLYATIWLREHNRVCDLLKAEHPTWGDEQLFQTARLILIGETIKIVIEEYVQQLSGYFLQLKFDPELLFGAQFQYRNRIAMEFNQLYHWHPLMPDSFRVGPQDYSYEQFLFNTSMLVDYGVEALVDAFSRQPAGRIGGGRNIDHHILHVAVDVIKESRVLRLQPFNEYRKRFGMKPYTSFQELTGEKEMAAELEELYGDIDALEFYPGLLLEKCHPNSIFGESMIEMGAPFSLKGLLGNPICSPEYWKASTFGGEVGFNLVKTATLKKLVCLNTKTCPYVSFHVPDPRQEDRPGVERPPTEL
Description: Inhibition of ovine COX1 by enzyme immuno assay

[2] = Effect on nitric oxide release in phosphate buffer at pH 7.4 after 1.5 hrs; assay type: physicochemical; conditions: pH 7.4, 1.5 h
[3] = Effect on nitric oxide release in phosphate buffer at pH 7.4 after 1.5 hrs in presence of rat serum; assay type: ADME; conditions: pH 7.4, 1.5 h

| Compound | ED50 (Rattus norvegicus) [µmol/kg] | IC50 [1] [µM] | Activity [2] [%] | Activity [3] [%] |
| --- | --- | --- | --- | --- |
| CC(C)Cc1ccc(C(C)C(=O)O)cc1 (stereo not drawn) [IBUPROFEN] | 327 | – | – | – |
| Cc1ccc(-c2cc(C(F)(F)F)nn2-c2ccc(S(N)(=O)=O)cc2)cc1 [CELECOXIB] | 30.9 | – | – | – |
| NS(=O)(=O)c1ccc(-n2nc(C(F)(F)F)cc2-c2ccc(CO)cc2)cc1 [PRIMARY ALCOHOL METABOLITE OF CELECOXIB] | 77.1 | – | – | – |
| CS(=O)(=O)c1ccc(-n2nc(C(F)(F)F)cc2-c2ccc(CO)cc2)cc1 | 112 | 8.6 | – | – |
| CC(=O)OCO/N=[N+](\[O-])N1CCC[C@H]1C(=O)OCc1ccc(-c2cc(C(F)(F)F)nn2-c2ccc(S(C)(=O)=O)cc2)cc1 | 76.7 | – | 6.1 | 77 |
| CC(=O)Oc1ccccc1C(=O)O [ASPIRIN] | 710 | – | – | – |
| CC(=O)OCO/N=[N+](\[O-])N1CCC[C@H]1C(=O)OCc1ccc(-c2cc(C(F)(F)F)nn2-c2ccc(S(N)(=O)=O)cc2)cc1 | 94.3 | > 100 | 8.2 | 76 |
